Experimental findings from US20240199702A1, “CELL-PERMEABLE CYCLIC PEPTIDES AND USES THEREOF” (Unnatural Products Inc., priority 2021, published 2024) are described below.

One test deals with MV4-11 cells. The test is described as follows: Cellular Fluorescence Assay 2 (CellTiter-Glo, 72 hours). The class given is cell-based. The protocol:
Cellular Fluorescence Assay 2
(§1) MV4-11 cells were grown in suspension in T75 flasks in RPMI medium with 10% fetal bovine serum (FBS) at 37° C. with 5% CO2. 40 μL of MV4-11 cells were plated into columns 1-22 of white, flat bottom, 384 well plates at a density of 1,000 cells per well in RPMI with 10% FBS. Columns 23 and 24 were filled with 40 μL of media as a positive control. 100 nL of compounds dissolved in DMSO were pin transferred into columns 3-22 of the 384 well plate. Columns 1 and 2 served as negative control wells. Plates were incubated for 72 hours at 37° C. with 5% CO2. After incubation, the cells were given 10 μL of CellTiter-Glo® (Promega®). Luminescence was read on a Molecular Devices SpectraMax i3x plate reader.
(Cellular ATP, detected with luciferase, serves as a proxy for viable cell number.)

The next test relates to MKL-1 cells. The test is described as follows: Cellular Fluorescence Assay 4 (CellTiter-Glo, 72 hours). The class given is cell-based. The protocol: Cellular Fluorescence Assay 4
as §1, with “MKL-1” for “MV4-11”, “MKL-1” for “of MV4-11”, “reader. In some embodiments, the cyclic peptide described herein is a cyclic peptide depicted in Table 1: […]” for “reader.”

The test system of the next test is MOLM-13 cells. The test is described as follows: Cellular Fluorescence Assay 1 (CellTiter-Glo, 72 hours). Format: cell-based. The protocol:
Cellular Fluorescence Assay 1
as §1, with “MOLM-13” for “MV4-11”, “ofMOLM-13” for “of MV4-11”

Another test deals with WaGa cells. The test is described as follows: Cellular Fluorescence Assay 3 (CellTiter-Glo, 72 hours). Format: cell-based. The protocol: Cellular Fluorescence Assay 3
as §1, with “WaGa” for “MV4-11”

The target in the next test is T1, Human MDM4 (HDM4) 1-114 (Homo sapiens, UniProt O15151).
T1 construct: Human MDM4 (HDM4) 1-114
T1 sequence (O15151 1-114): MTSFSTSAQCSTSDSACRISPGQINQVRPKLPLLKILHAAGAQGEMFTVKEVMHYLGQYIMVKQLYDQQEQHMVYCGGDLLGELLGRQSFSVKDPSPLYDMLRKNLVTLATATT
The test is described as follows: Fluorescence Polarization Assay 2 (MDM4/p53 peptide). Format: binding. Particulars: FAM-labeled p53 peptide, 60 minutes. The protocol: Fluorescence Polarization Assay 2
(§2) Human MDM4 (HDM4) 1-114 (20 μL) and FAM-labeled GGTSFAEYWNLLSP —NH2, 20 nM and 5 nM respectively in 10 mM Tris, 50 mM NaCl, 0.01% Tween20, and 1 mM DTT at pH 7.4 were dispensed into an opaque, black, 384 well plate. Compounds dissolved in DMSO were pin transferred (−100-200 nL) to the 384 well plate containing the MDM4/p53 solution. After incubation for 60 minutes, the fluorescence polarization was read on a Molecular Devices SpectraMax plate reader equipped with a Fluorescein FP cartridge. In addition to probe alone (positive control) and probe/MDM4 (negative control), a titration of linear p53(18-26) was included on every plate as an additional control. IC50 values were fit using either Prism or Collaborative Drug Discovery.
In general terms: Fluorescence polarisation rises when a labelled molecule tumbles more slowly, as on binding a larger partner.

In another test the target is T2, Human MDM2 (HDM2) 1-116 (Homo sapiens, UniProt Q00987).
T2 construct: Human MDM2 (HDM2) 1-116
The test is described as follows: Fluorescence Polarization Assay 1 (MDM2/p53 peptide). Format: binding. Particulars: FAM-labeled p53 peptide, 60 minutes. The protocol:
Fluorescence Polarization Assay 1
as §2, with “MDM2 (HDM2) 1-116” for “MDM4 (HDM4) 1-114”, “GGTSFAEYWNLLSP-NH2, 10” for “GGTSFAEYWNLLSP —NH2, 20”, “(˜100-200” for “(−100-200”, “MDM2/p53” for “MDM4/p53”, “probe/MDM2” for “probe/MDM4”

Where a SMILES comes first, the peptide text is derived from it. [ ]: non-standard residue; d: D form. ξ: configuration not given here. Ala(thiazol-5-yl) = N[C@@H](Cc1cncs1)C(=O)O; Ala(4-thiazolyl) = N[C@@H](Cc1cscn1)C(=O)O; NMePhe(4-F) = CN[C@@H](Cc1ccc(F)cc1)C(=O)O; Phe(4-Cl) = N[C@@H](Cc1ccc(Cl)cc1)C(=O)O; Phe(4-F) = N[C@@H](Cc1ccc(F)cc1)C(=O)O; NMeF = CN[C@@H](Cc1ccccc1)C(=O)O; NMeV = CN[C@H](C(=O)O)C(C)C; hSer = N[C@@H](CCO)C(=O)O; NMeA = CN[C@@H](C)C(=O)O; dNMeA = CN[C@H](C)C(=O)O; ξNMeV = CNC(C(=O)O)C(C)C; Aze = O=C(O)[C@@H]1CCN1; NBuGly = CCCCNCC(=O)O; Nme = COCCNCC(=O)O; NEtG = CCNCC(=O)O

T2 sequence (Q00987 1-116): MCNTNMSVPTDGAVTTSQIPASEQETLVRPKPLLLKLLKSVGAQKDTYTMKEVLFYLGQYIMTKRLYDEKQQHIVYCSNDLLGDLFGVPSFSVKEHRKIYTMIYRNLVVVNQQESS

Broadly, the IC50 is the concentration at which inhibition is half-maximal. A lower IC50 goes with greater potency in that assay. On to `CCCCN1CC(=O)N[C@@H](Cc2ccc(F)cc2)C(=O)N(C)C(C(C)C)C(=O)N[C@@H](Cc2ccc(Cl)cc2)C(=O)N(C)[C@@H](Cc2ccccc2)C(=O)N2CCC[C@@H]2C(=O)N[C@@H](CCOC)C(=O)N(C)[C@@H](C)C(=O)N[C@@H](Cc2cncs2)C(=O)N(C)[C@H](C)C1=O` (stereo partly drawn) [compound 24] (cyclo([NMeA][Ala(thiazol-5-yl)][dNMeA][NBuGly][Phe(4-F)][ξNMeV][Phe(4-Cl)][NMeF][dP][hSer](Me))), for which the IC50 with MV4-11 cells is no less than 150 nM; in the test on MKL-1 cells it was no less than 2000 nM; with MOLM-13 cells it was no less than 150 nM; with WaGa cells, no less than 150 nM; on Human MDM4 (HDM4) 1-114, no less than 100 nM; against Human MDM2 (HDM2) 1-116 it was 25 to 50 nM.
Regarding `COCC[C@@H]1NC(=O)[C@H]2CCCN2C(=O)[C@H](Cc2ccc(F)cc2)N(C)C(=O)[C@H](Cc2ccc(Cl)cc2)NC(=O)[C@@H]2CCN2C(=O)[C@H](Cc2ccc(F)cc2)NC(=O)CN(CCOC)C(=O)[C@@H](C)N(C)C(=O)[C@H](Cc2cscn2)NC(=O)[C@@H]2CCCN2C1=O` [compound 21] (cyclo([Ala(4-thiazolyl)][dNMeA][Nme][Phe(4-F)][Aze][Phe(4-Cl)][NMePhe(4-F)][dP][hSer](Me)P)), the concentration for half-maximal inhibition (IC50) was no less than 150 nM with MV4-11 cells; 1000 to 2000 nM with MKL-1 cells; no less than 150 nM in the test on MOLM-13 cells; no less than 150 nM in the test on WaGa cells; 50 to 100 nM against Human MDM4 (HDM4) 1-114; 50 to 100 nM on Human MDM2 (HDM2) 1-116.
On to `CCN1CC(=O)N[C@@H](Cc2ccc(F)cc2)C(=O)N(C)[C@@H](C(C)C)C(=O)N[C@@H](Cc2ccc(Cl)cc2)C(=O)N(C)[C@@H](Cc2ccccc2)C(=O)N2CCC[C@@H]2C(=O)N[C@@H](CCOC)C(=O)N(C)[C@@H](C)C(=O)N[C@@H](Cc2cncs2)C(=O)N(C)[C@H](C)C1=O` [compound 25] (cyclo([NEtG][Phe(4-F)][NMeV][Phe(4-Cl)][NMeF][dP][hSer](Me)[NMeA][Ala(thiazol-5-yl)][dNMeA])), for which the 50% inhibitory concentration (IC50) in the test with MV4-11 cells was 100 to 150 nM; in the test on MKL-1 cells, 500 to 1000 nM; with MOLM-13 cells, no less than 150 nM; with WaGa cells, no less than 150 nM; on Human MDM4 (HDM4) 1-114, no less than 100 nM; on Human MDM2 (HDM2) 1-116, less than 25 nM.
